Data taken from ChEMBL document CHEMBL4043150, “Discovery of novel pyrazolo[1,5-a]pyridine-based EP1 receptor antagonists by scaffold hopping: Design, synthesis, and structure-activity relationships” (Bioorg Med Chem Lett, 2017).
pIC50: −log10 of the molar value. The source made the active and inactive calls. The rule behind the calls is not given here.

How the values were obtained:
[1] = biological target: T1, Prostaglandin E2 receptor EP1 subtype (Rattus norvegicus, UniProt P70597); assay: (§1) Antagonist activity at rat His-tagged EP1 receptor expressed in African green monkey COS1 cells assessed as reduction in PGE2-induced increase in intracellular calcium level preincubated for 60 secs followed by PGE2 addition measured for 60 secs by Fluo 4-AM dye-based fluorescence assay; assay type: functional, cell-based
T1 sequence (P70597 whole entry): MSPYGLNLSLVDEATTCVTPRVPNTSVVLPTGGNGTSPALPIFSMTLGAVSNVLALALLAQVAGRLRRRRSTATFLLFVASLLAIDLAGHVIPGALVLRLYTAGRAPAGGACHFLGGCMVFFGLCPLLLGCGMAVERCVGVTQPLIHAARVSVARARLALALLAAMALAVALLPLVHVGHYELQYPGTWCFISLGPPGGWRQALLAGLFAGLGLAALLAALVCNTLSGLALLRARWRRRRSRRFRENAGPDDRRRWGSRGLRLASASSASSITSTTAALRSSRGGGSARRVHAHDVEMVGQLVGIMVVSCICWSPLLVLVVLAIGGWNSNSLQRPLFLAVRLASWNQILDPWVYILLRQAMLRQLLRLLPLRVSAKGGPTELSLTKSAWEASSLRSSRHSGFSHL

[2] = Initial plasma concentration in rat at 1 mg/kg, iv; assay type: ADME, organism-based
[3] = AUC (0 to infinity) in rat at 1 mg/kg, iv; assay type: ADME, organism-based; design: dose 1 mg/kg, time infinity, route intravenous; settings: in vivo
[4] = Volume of distribution at steady state in rat at 1 mg/kg, iv; assay type: ADME, organism-based; settings: in vivo, read-out: Vdss
[5] = Total clearance in rat at 1 mg/kg, iv; assay type: ADME, organism-based; settings: in vivo
Rattus norvegicus = assay: Suppression of 17-PTP-induced bladder contraction in Wistar rat assessed as change in intravesical pressure at 1 mg/kg, iv pretreated for 5 mins followed by 17-PTP administration for 9 times with 30 mins time interval up to 245 mins post dose; assay type: functional, organism-based
[6] = Aqueous solubility of compound; assay type: physicochemical; settings: buffer
[7] = biological target: T2, Prostaglandin E2 receptor EP1 subtype (Rattus norvegicus) (UniProt P70597); assay: as §1, with “level at 10 uM” for “level”, “assay relative to control” for “assay”; assay type: functional, cell-based
T2 sequence (whole entry): T1 sequence (P70597 whole entry)

`O=C(O)c1cccc(Cc2c(-c3ccccc3)nn3cc(C4CC4)ccc23)n1` gave a pIC50 [1] of 6.72.
Compound `COc1ccc2c(Cc3cncc(C(=O)O)n3)c(-c3ccccc3)nn2c1` has a pIC50 [1] of 5.35.
`O=C(O)c1cccc(Cc2c(-c3ccccc3Cl)nn3cc(Cl)ccc23)n1` gave a pIC50 [1] of 6.19.
Work on `O=C(O)c1cccc(Cc2c(N3CCCC3)nn3cc(Cl)ccc23)n1` yielded a pIC50 [1] of 5.74.
For `COc1ccc2c(Cc3cccc(C(=O)O)n3)c(-c3ccccc3)nn2c1`, the C0 [2] was 2660 ng/mL, the AUC(0-inf) [3] was 2780 ng·h/mL and the Vd [4] was 0.45 L/kg. For the same compound, the clearance [5] was 6.12 mL/min/kg, the Activity (Rattus norvegicus) was “Active” and the solubility [6] was > 75 µM.
With `COc1ccc(-c2nn3cc(Cl)ccc3c2Cc2cccc(C(=O)O)n2)cc1` the pIC50 [1] was 5.27.
With `C=C(C)c1ccc2c(Cc3cccc(C(=O)O)n3)c(-c3ccccc3)nn2c1` the pIC50 [1] was 6.54.
Work on `O=C(O)c1cccc(Cc2c(N3CCCCCC3)nn3cc(Cl)ccc23)n1` yielded a pIC50 [1] of 5.85.
Work on `O=C(O)c1cccc(Cc2c(-c3ccccc3)nn3cc(F)ccc23)n1` yielded a pIC50 [1] of 6.42.
`O=C(O)c1cccc(Cc2c(-c3cccs3)nn3cc(Cl)ccc23)n1` gave a pIC50 [1] of 5.96.
With `N#Cc1ccc2c(Cc3cccc(C(=O)O)n3)c(-c3ccccc3)nn2c1` the pIC50 [1] was 6.36.
For `COc1ccccc1-c1nn2cc(Cl)ccc2c1Cc1cccc(C(=O)O)n1`, the inhibition [7] was 29%.
For `O=C(O)c1cccc(Cc2c(-c3ccccc3)nn3cc(Cl)ccc23)n1`, the C0 [2] was 2750 ng/mL, the AUC(0-inf) [3] was 1590 ng·h/mL and the Vd [4] was 0.489 L/kg. The clearance [5] was 10.7 mL/min/kg and the Activity (Rattus norvegicus) was “Active”.
In the case of `O=C(O)c1cccc(Cc2c(-c3ccsc3)nn3cc(Cl)ccc23)n1`, the pIC50 [1] was 6.96.
Work on `O=C(O)c1cccc(Cc2c(C3CCCCC3)nn3cc(Cl)ccc23)n1` yielded a pIC50 [1] of 5.92.
For `O=C(O)c1cccc(Cc2c(-c3ccc(Cl)cc3)nn3cc(Cl)ccc23)n1`, the pIC50 [1] was 5.96.
Work on `O=C(O)c1cccc(Cc2c(-c3ccccc3)nn3cc(C(F)(F)F)ccc23)n1` yielded a pIC50 [1] of 7.80, a C0 [2] of 2430 ng/mL and an AUC(0-inf) [3] of 4360 ng·h/mL. The Vd [4] was 0.473 L/kg, the clearance [5] was 3.84 mL/min/kg and the Activity (Rattus norvegicus) was “Active”.
Compound `COc1cccc(-c2nn3cc(Cl)ccc3c2Cc2cccc(C(=O)O)n2)c1` has a pIC50 [1] of 6.10.
`O=C(O)c1cccc(Cc2c(N3CCOCC3)nn3cc(Cl)ccc23)n1` showed a pIC50 [1] of 6.13.
`CC(=O)c1ccc2c(Cc3cccc(C(=O)O)n3)c(-c3ccccc3)nn2c1` showed a pIC50 [1] of 5.96.
For `O=C(O)c1cccc(Cc2c(-c3ccco3)nn3cc(Cl)ccc23)n1`, the pIC50 [1] was 5.92.
For `COc1ccn2nc(-c3ccccc3)c(Cc3cccc(C(=O)O)n3)c2c1`, the pIC50 [1] was 5.04.
For `O=C(O)c1cccc(Cc2c(-c3cccc(Cl)c3)nn3cc(Cl)ccc23)n1`, the pIC50 [1] was 6.32.
In the case of `CC(C)Cc1nn2cc(Cl)ccc2c1Cc1cccc(C(=O)O)n1`, the pIC50 [1] was 6.70.
Compound `O=C(O)c1cccc(Cc2c(C3CC3)nn3cc(Cl)ccc23)n1` has a pIC50 [1] of 5.82.
For `Cc1cc(C(=O)O)nn1Cc1cc(Cl)cc2cc(-c3ccccc3)nn12`, the solubility [6] was > 75 µM.
In the case of `O=C(O)c1cccc(Cc2c(N3CCSCC3)nn3cc(Cl)ccc23)n1`, the pIC50 [1] was 6.59.
`O=C(O)c1cccc(Cc2c(-c3ccccc3)nn3ccccc23)n1` gave a pIC50 [1] of 5.64.
Work on `COc1cccc2c(Cc3cccc(C(=O)O)n3)c(-c3ccccc3)nn12` yielded an inhibition [7] of 33%.
Compound `CS(=O)(=O)c1ccc2c(Cc3cccc(C(=O)O)n3)c(-c3ccccc3)nn2c1` has a pIC50 [1] of 5.27.
`O=C(O)c1cccc(Cc2c(-c3ccoc3)nn3cc(Cl)ccc23)n1` gave a pIC50 [1] of 6.89.
